# Measured values as given in PubChem BioAssay AID1963977 (Molecular Pharmacology Branch, DTP, NCI, 2024).
# pIC50: −log10 of the molar value.
# Tested on: 624824-186-R-J3-PDC multicell spheroids, viability
# Assay: Anticancer human tumor 624824-186-R-J3-PDC patient-derived colon adenocarcinoma cell line growth inhibition [PI3K]
# Details: for pIC50: curve of first compound; for viability, T/C: stronger effect = lower value
# Source text: Combinatorial screen of targeted agents with the PI3K inhibitors inavolisib, alpelisib, duvelisib, and copanlisib in multi-cell type tumor spheroids
# A high-throughput screen of multi-cell type tumor spheroids was designed to identify active combinations of targeted small molecules and PI3K pathway inhibitors. Complex spheroids include a stromal component modeled by human endothelial cells (HUVEC) and fibroblasts modeled by human mesenchymal stem cells (MSCs). The concentration ranges selected for each drug and investigational agent were based upon clinically achievable concentrations if the clinical Cmax of the agent was known.
# Compounds. The drugs and investigational agents: inavolisib (NSC800729), alpelisib (NSC765974), duvelisib (NSC772469), copanlisib (NSC816437), ipatasertib (NSC767898), afuresertib (NSC778305), talazoparib (NSC767125), sapanisertib (NSC764658), selumetinib (NSC741078), tovorafenib (DAY101, NSC766906), vemurafenib (NSC761431), ravoxertinib (NSC781343), sotorasib (NSC818433), MRTX1133 (NSC 836407), abemaciclib (NSC 768073), palbociclib (NSC758247), venetoclax (NSC 766270), SY5609 (NSC837396), enzalutamide (NSC755605), and darolutamide (NSC825331), were obtained from the National Cancer Institute (NCI) Developmental Therapeutics Program Chemical Repository. The FDA-approved anticancer drug set is available from the NCI Developmental Therapeutics Program. […] The stock solutions were prepared in dimethyl sulfoxide (DMSO, Sigma-Aldrich, St. Louis, MO, cat. D2650) at 800-fold the tested concentration and stored at -70 degrees C prior to their use. All drugs and investigational agents were tested over a range starting from a high concentration at or near the clinical Cmax and decreasing in half-log increments. If the clinical Cmax for an agent had not been determined, the highest concentration tested was 10 microM.
# Cell Culture. All cells were maintained in an incubator at 37 degrees C and 5% CO2 with 95% humidity. The PDC lines were cultured according to standard operating procedures established by the NCI PDMR (https://pdmr.cancer.gov/sops/default.htm). All PDCs were thawed and cultured in Matrigel-coated flasks prepared with a working solution of 1X Ham's F-12 nutrient mix, without supplementation (Invitrogen, Waltham, MA, cat. 11765054), 100 U/mL penicillin-streptomycin (Invitrogen, cat. 15140122), and 2.5% Matrigel (Corning Inc., Corning, NY, cat. 354248) for the first three passages. The 354836-022-R-J1-PDC, 475296-252-R-J1-PDC, and 997726-040-R-J2-PDC lines were cultured in 6A media, which includes advanced DMEM/F-12 (Thermo Fisher Scientific, cat. 12634028), 10 mM HEPES (Thermo Fisher Scientific, cat. 15630080), 1X GlutaMAX supplement (Thermo Fisher Scientific, cat. 35050061), 0.1 mg/mL primocin (InvivoGen, San Diego, CA, cat. ant-pm-2), 10% defined fetal bovine serum, heat inactivated (HyClone Laboratories Inc., Logan, UT, cat. SH30070.03HI), 50% L-WRN conditioned media (ATCC, cat. CRL-3276), 1.25 mM N-Acetyl-L-cysteine (Sigma-Aldrich, cat. A9165), 10 mM nicotinamide (Sigma-Aldrich, cat. N0636), 1X B-27 supplement (Thermo Fisher Scientific, cat. 17504044), 1X N-2 supplement (Thermo Fisher Scientific, cat. 17502048), and 10 microM Y-27632 dihydrochloride (Tocris Bioscience, Bristol, United Kingdom, cat. 1254). The 624824-186-R-J2-PDC line was cultured in 6C/Colon 1B media, which includes all 6A media components plus 50 ng/mL human EGF recombinant protein (Thermo Fisher Scientific, cat. PHG0311). […]
# [1] = second compound 0.0316 µM, first compound 0.0316 µM
# [2] = second compound 0.0316 µM, first compound 0.1 µM
# [3] = second compound 0.0316 µM, first compound 0.316 µM
# [4] = second compound 0.0316 µM, first compound 1 µM
# [5] = second compound 0.0316 µM, first compound 3.16 µM
# [6] = second compound 0.0316 µM, first compound 10 µM
# [7] = second compound 0.1 µM, first compound 0.0316 µM
# [8] = second compound 0.1 µM, first compound 0.1 µM
# [9] = second compound 0.1 µM, first compound 0.316 µM
# [10] = second compound 0.1 µM, first compound 1 µM
# [11] = second compound 0.1 µM, first compound 3.16 µM
# [12] = second compound 0.1 µM, first compound 10 µM
# [13] = second compound 0.316 µM, first compound 0.0316 µM
# [14] = second compound 0.316 µM, first compound 0.1 µM
# [15] = second compound 0.316 µM, first compound 0.316 µM
# [16] = second compound 0.316 µM, first compound 1 µM
# [17] = second compound 0.316 µM, first compound 3.16 µM
# [18] = second compound 0.316 µM, first compound 10 µM
# [19] = second compound 1 µM, first compound 0.0316 µM
# [20] = second compound 1 µM, first compound 0.1 µM
# [21] = second compound 1 µM, first compound 0.316 µM
# [22] = second compound 1 µM, first compound 1 µM
# [23] = second compound 1 µM, first compound 3.16 µM
# [24] = second compound 1 µM, first compound 10 µM
# [25] = second compound 3.16 µM, first compound 0.0316 µM
# [26] = second compound 3.16 µM, first compound 0.1 µM
# [27] = second compound 3.16 µM, first compound 0.316 µM
# [28] = second compound 3.16 µM, first compound 1 µM
# [29] = second compound 10 µM, first compound 0.0316 µM
# [30] = second compound 10 µM, first compound 0.1 µM
# [31] = second compound 10 µM, first compound 0.316 µM
# [32] = second compound 10 µM, first compound 1 µM
# 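Also: spheroids exposed to agents for seven days before luminescence read.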
# 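For viability, T/C in this document: luminescent signal used as a stand-in for spheroid viability; percent viability relative to DMSO vehicle control wells taken as 100%.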
compound,measurement,setting,value
CC1(C)CCC(Nc2ncc(C(F)(F)F)c(-c3c[nH]c4c(P(C)(C)=O)c(C#N)ccc34)n2)CN1 (stereo unspecified) + Cc1nc(NC(=O)N2CCCC2C(N)=O)sc1-c1ccnc(C(C)(C)C(F)(F)F)c1,pIC50,second compound 0.0316 µM,5.25
same,pIC50,second compound 0.1 µM,5.27
same,pIC50,second compound 0.316 µM,5.29
same,pIC50,second compound 1 µM,5.34
same,pIC50,second compound 3.16 µM,5.74
same,pIC50,second compound 10 µM,> 7.50
same,"viability, T/C",[1],113%
same,"viability, T/C",[2],92%
same,"viability, T/C",[3],106%
same,"viability, T/C",[4],101%
same,"viability, T/C",[5],95%
same,"viability, T/C",[6],4.64%
same,"viability, T/C",[7],107%
same,"viability, T/C",[8],89.9%
same,"viability, T/C",[9],110%
same,"viability, T/C",[10],102%
same,"viability, T/C",[11],90.3%
same,"viability, T/C",[12],4.24%
same,"viability, T/C",[13],97.5%
same,"viability, T/C",[14],103%
same,"viability, T/C",[15],88%
same,"viability, T/C",[16],92.2%
same,"viability, T/C",[17],84.5%
same,"viability, T/C",[18],4.3%
same,"viability, T/C",[19],76.1%
same,"viability, T/C",[20],75.9%
same,"viability, T/C",[21],79.3%
same,"viability, T/C",[22],79.4%
same,"viability, T/C",[23],72.3%
same,"viability, T/C",[24],3.52%
same,"viability, T/C",[25],59.1%
same,"viability, T/C",[26],54.3%
same,"viability, T/C",[27],53.7%
same,"viability, T/C",[28],55.3%
same,"viability, T/C","second compound 3.16 µM, first compound 3.16 µM",45.6%
same,"viability, T/C","second compound 3.16 µM, first compound 10 µM",2.38%
same,"viability, T/C",[29],35.5%
same,"viability, T/C",[30],34.1%
same,"viability, T/C",[31],36.2%
same,"viability, T/C",[32],34%
same,"viability, T/C","second compound 10 µM, first compound 3.16 µM",39%
same,"viability, T/C","second compound 10 µM, first compound 10 µM",1.61%
CCN1CCN(Cc2ccc(Nc3ncc(F)c(-c4cc(F)c5nc(C)n(C(C)C)c5c4)n3)nc2)CC1 + CC(Nc1ncnc2nc[nH]c12)c1cc2cccc(Cl)c2c(=O)n1-c1ccccc1,pIC50,second compound 0.0316 µM,< 6.00
same,pIC50,second compound 0.1 µM,< 6.00
same,pIC50,second compound 0.316 µM,< 6.00
same,pIC50,second compound 1 µM,< 6.00
same,pIC50,second compound 3.16 µM,< 6.00
same,pIC50,second compound 10 µM,< 6.00
same,"viability, T/C","second compound 0.0316 µM, first compound 0.00316 µM",101%
same,"viability, T/C","second compound 0.0316 µM, first compound 0.01 µM",94%
same,"viability, T/C",[1],101%
same,"viability, T/C",[2],110%
same,"viability, T/C",[3],99%
same,"viability, T/C",[4],109%
same,"viability, T/C","second compound 0.1 µM, first compound 0.00316 µM",103%
same,"viability, T/C","second compound 0.1 µM, first compound 0.01 µM",108%
same,"viability, T/C",[7],97.2%
same,"viability, T/C",[8],106%
same,"viability, T/C",[9],111%
same,"viability, T/C",[10],97.6%
same,"viability, T/C","second compound 0.316 µM, first compound 0.00316 µM",105%
same,"viability, T/C","second compound 0.316 µM, first compound 0.01 µM",110%
same,"viability, T/C",[13],96.4%
same,"viability, T/C",[14],111%
same,"viability, T/C",[15],99.8%
same,"viability, T/C",[16],99.7%
same,"viability, T/C","second compound 1 µM, first compound 0.00316 µM",93.1%
same,"viability, T/C","second compound 1 µM, first compound 0.01 µM",103%
same,"viability, T/C",[19],104%
same,"viability, T/C",[20],94.3%
same,"viability, T/C",[21],92.2%
same,"viability, T/C",[22],101%
same,"viability, T/C","second compound 3.16 µM, first compound 0.00316 µM",106%
same,"viability, T/C","second compound 3.16 µM, first compound 0.01 µM",100%
same,"viability, T/C",[25],102%
same,"viability, T/C",[26],90.8%
same,"viability, T/C",[27],88.1%
same,"viability, T/C",[28],81.8%
same,"viability, T/C","second compound 10 µM, first compound 0.00316 µM",96.6%
same,"viability, T/C","second compound 10 µM, first compound 0.01 µM",96.7%
same,"viability, T/C",[29],87%
same,"viability, T/C",[30],78.1%
same,"viability, T/C",[31],65.3%
same,"viability, T/C",[32],67%
Cn1nccc1Nc1nccc(-c2ccn(C(CO)c3ccc(Cl)c(F)c3)c(=O)c2)n1 (stereo unspecified) + COc1c(OCCCN2CCOCC2)ccc2c3n(c(=NC(=O)c4cnc(N)nc4)nc12)CCN3,pIC50,second compound 0.00316 µM,5.16
same,pIC50,second compound 0.01 µM,5.87
same,pIC50,second compound 0.0316 µM,6.40
same,pIC50,second compound 0.1 µM,6.82
same,pIC50,second compound 0.316 µM,> 7.50
same,pIC50,second compound 1 µM,> 7.50
same,"viability, T/C","second compound 0.00316 µM, first compound 0.0316 µM",111%
same,"viability, T/C","second compound 0.00316 µM, first compound 0.1 µM",84.7%
same,"viability, T/C","second compound 0.00316 µM, first compound 0.316 µM",100%
same,"viability, T/C","second compound 0.00316 µM, first compound 1 µM",72.8%
same,"viability, T/C","second compound 0.00316 µM, first compound 3.16 µM",57.7%
same,"viability, T/C","second compound 0.00316 µM, first compound 10 µM",46.6%
same,"viability, T/C","second compound 0.01 µM, first compound 0.0316 µM",112%
same,"viability, T/C","second compound 0.01 µM, first compound 0.1 µM",100%
same,"viability, T/C","second compound 0.01 µM, first compound 0.316 µM",87.5%
same,"viability, T/C","second compound 0.01 µM, first compound 1 µM",51.4%
same,"viability, T/C","second compound 0.01 µM, first compound 3.16 µM",41.8%
same,"viability, T/C","second compound 0.01 µM, first compound 10 µM",34.4%
same,"viability, T/C",[1],90.2%
same,"viability, T/C",[2],83.8%
same,"viability, T/C",[3],56.2%
same,"viability, T/C",[4],26.4%
same,"viability, T/C",[5],25.1%
same,"viability, T/C",[6],21.8%
same,"viability, T/C",[7],74.5%
same,"viability, T/C",[8],58%
same,"viability, T/C",[9],35.9%
same,"viability, T/C",[10],14.2%
same,"viability, T/C",[11],10.7%
same,"viability, T/C",[12],9.81%
same,"viability, T/C",[13],46.3%
same,"viability, T/C",[14],38.4%
same,"viability, T/C",[15],18.3%
same,"viability, T/C",[16],7.62%
same,"viability, T/C",[17],4.31%
same,"viability, T/C",[18],2.66%
same,"viability, T/C",[19],26%
same,"viability, T/C",[20],20.9%
same,"viability, T/C",[21],13.4%
same,"viability, T/C",[22],6.73%
same,"viability, T/C",[23],3.58%
same,"viability, T/C",[24],2.38%
